“And” between values parts separate entries of the source, which are not always exact repeats. Identical values can stand only once.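 Step 1: Grow cells in 96-well plates. Step 2: Expose to compound for 48 hours at 5 concentrations. Step 3: Interpolate endpoints linearly; if unreached, use highest concentration. GI50 is the concentration that inhibits growth by half. At the TGI there is no net growth.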
Key:
Experiment in all cases: NCI-60 cell line screen, 48 h
RPMI-8226 leukemia = tested on: RPMI-8226 leukemia
SW-620 colon = tested on: SW-620 colon
SK-OV-3 ovarian = tested on: SK-OV-3 ovarian
TK-10 renal = tested on: TK-10 renal
LXFL 529 NSCLC = tested on: LXFL 529 NSCLC
DMS 273 small cell lung = tested on: DMS 273 small cell lung
U251 CNS = tested on: U251 CNS
SK-MEL-5 melanoma = tested on: SK-MEL-5 melanoma
NCI-H23 lung = tested on: NCI-H23 lung
BT-549 breast = tested on: BT-549 breast

Compound	TGI (RPMI-8226 leukemia)	TGI (SW-620 colon)	TGI (SK-OV-3 ovarian)	TGI (TK-10 renal)	TGI (LXFL 529 NSCLC)	TGI (DMS 273 small cell lung)	TGI (U251 CNS)	TGI (SK-MEL-5 melanoma)	TGI (NCI-H23 lung)	GI50 (SW-620 colon)	GI50 (SK-OV-3 ovarian)	GI50 (TK-10 renal)	GI50 (LXFL 529 NSCLC)	GI50 (DMS 273 small cell lung)	GI50 (NCI-H23 lung)	GI50 (U251 CNS)	GI50 (SK-MEL-5 melanoma)	GI50 (RPMI-8226 leukemia)	TGI (BT-549 breast)	GI50 (BT-549 breast)
O=C(Nc1ccc([N+](=O)[O-])cc1C(=O)O)c1ccc([N+](=O)[O-])cc1	57.7 µM	> 100 µM	> 100 µM	> 100 µM	> 100 µM	> 100 µM	> 100 µM	> 100 µM	–	–	–	–	–	–	–	–	–	–	–	–
O=C(CC/C(CC(=O)c1ccc(Cl)cc1)=N/O)Nc1ccc(Cl)c(Cl)c1	> 100 µM	> 100 µM	> 100 µM	> 100 µM	> 100 µM	> 100 µM	> 100 µM	> 100 µM	> 100 µM	–	–	–	–	–	–	–	–	–	–	–
CCOC(=O)N[C@H]1CCc2cc(O)c(OC)c(OC)c2-c2ccc(SC)c(=O)cc21	> 72.6 µM	> 100 µM	> 8.57 µM	> 100 µM	> 92.3 µM	> 100 µM	> 6.92 µM	0.0145 µM	9.95 µM	–	–	–	–	–	–	–	–	–	–	–
Cc1cc(Cl)ccc1NC(=O)CC1SC(N)=NC1=O (configuration not stated)	> 100 µM	> 100 µM	> 100 µM	> 100 µM	> 100 µM	> 100 µM	> 100 µM	> 100 µM	> 100 µM	–	–	–	–	–	–	–	–	–	–	–
CCC[CH2][Sn]1([CH2]CCC)[O]C(=O)c2cccc(OC)c2[O]1	–	0.366 µM	2.71 µM	0.829 µM	0.212 µM	1.96 µM	0.751 µM	2.11 µM	1.25 µM	0.148 µM	1.39 µM	0.316 µM	0.0427 µM	0.569 µM	0.265 µM	0.237 µM	0.722 µM	–	–	–
Cc1ccc(NC(=O)COC(=O)c2cccc3c(=O)c4ccccc4[nH]c23)cc1	> 100 µM	> 100 µM	92 µM	> 100 µM	> 100 µM	94.9 µM	> 100 µM	> 100 µM	74.3 µM	–	–	–	–	–	–	–	–	–	–	–
O=C1C2C(C(=O)N1c1ccccc1)C1(c3ccccc3)OC2(c2ccccc2)c2ccccc21 (configuration not stated)	> 100 µM	> 100 µM	> 100 µM	> 100 µM	> 100 µM	> 100 µM	> 100 µM	> 100 µM	> 100 µM	–	–	–	–	–	–	–	–	–	–	–
C/C=C(\CCC1NCCc2c1[nH]c1ccccc21)[Si](C)(C)C (configuration not stated)	–	9.63 µM and 3.63 µM	25.2 µM and 26.5 µM	27.5 µM and 17 µM	9.27 µM and 3.2 µM	11.3 µM and 4.07 µM	10.5 µM and 3.27 µM	10.2 µM and 5.23 µM	20.1 µM and 8.2 µM	5.29 µM and 1.92 µM	–	14.3 µM and 5.62 µM	–	5.99 µM and 1.93 µM	7.89 µM and 1.61 µM	5.79 µM and 1.8 µM	5.63 µM and 2.32 µM	19.8 µM and 2.36 µM	23.2 µM	–
O=C(NCC(=O)N1CC[C@H](NC2CCC(O)(c3ccc(-c4ncccn4)cn3)CC2)C1)c1cccc(C(F)(F)F)c1 (some centres not stated)	> 100 µM	> 100 µM	> 100 µM	> 100 µM	–	–	> 100 µM	46.6 µM	> 100 µM	> 100 µM	> 100 µM	> 100 µM	–	–	52.1 µM	91.8 µM	18.2 µM	31 µM	> 100 µM	34.9 µM
COc1ccc(N(C)c2nc(Cl)nc3ccn(C)c23)cc1	> 100 µM	> 100 µM	> 100 µM	> 100 µM	–	–	> 100 µM	< 0.01 µM	> 100 µM	< 0.01 µM	< 0.01 µM	91.3 µM	–	–	< 0.01 µM	< 0.01 µM	< 0.01 µM	< 0.01 µM	> 100 µM	< 0.01 µM

Source: PubChem BioAssay (NCI)
